Assay results as given in US9714235B2, “Quinazoline derivatives, compositions thereof, and use as pharmaceuticals” (Shanghai Fochon Pharmaceutical Co., Ltd., priority 2013, dated 2017).

Experiments:
[1] = tested on: BT474 (EGFR overexpression) cells; assay: Cell proliferation assay (MTS), BT474; assay type: cell-based; conditions: Homo sapiens, BT-474, 168 h, 7 d incubation
Description: (§1) Cell Proliferation Asssay
(§2) Materials and Preparation of Reagents
(§3) MTS testing kit was purchased from Promega. […] Dimethyl sulfoxide (DMSO) was purchased from Sigma.
(§4) Inhibition Activity of Cell Proliferation
(§5) In this assay, inhibition of EGFR and ErbB2 was detected by the inhibition of BT474 and N87 cells proliferation. BT474 cells were cultured in culture flasks to 40-80% confluence in DMEM plus 10% fetal bovine serum. […] Cells were collected and plated onto 96-well plates at desired cell density (BT474: 1000 cells/well; N87: 1000 cells/well). BT474 plates were incubated 48 h at 37° C., with 5% CO2 to adhere. N87 plates were incubated overnight at 37° C., with 5% CO2 to adhere. […] Place BT474 plates at 37° C., with 5% CO2 for 7d. Place N87 plates at 37° C., with 5% CO2 for 72 h. After removing the medium, 20 μl MTS/100 μl medium mixture solution were added to each well and incubate the plates for exactly 2 hours. Measure absorbance at 490 nm and 650 nm (reference wavelength). IC50 was calculated using GraphPad Prism 5.0.

[2] = tested on: N87 (EGFR and ErbB2 overexpression) cells; assay: Cell proliferation assay (MTS), N87; assay type: cell-based; conditions: 72 h incubation
Description: as §1, §2, §3, §4, §5

NCI-N87 tumor cells = assay: N87 tumor in vivo study; parameters: species or system Female BALB/cA-nude mice; conditions: for Average Tumor Volume Day 21 / Inhibition rate / T/C: Day 21; for Average Tumor Volume Day 0: Day 0 (baseline)
Description: Female BALB/cA-nude mice were implanted with NCI-N87 tumor cells. Tumor measurements were recorded twice a week. Randomize animals to groups (Day 0) when tumors reached an average size of 60-150 mm^3. Group size was 6 mice. Test compound was administered p.o. once daily for 21 days. Tumor inhibition values were determined at Day 21.
Tumor volume (V) was calculated as follow: V=½×a×b, where a and b are the length and width of the tumor respectively. Relative tumor proliferation rate was calculated as follow: T/C (%)=(T−T0)/(C−C0)×100, where T and C are the tumor volume of test compound group and control group on Day 21, T0 and C0 are the tumor volume of test compound group and control group on Day 0.

[3] = 20 mg/kg p.o. once daily for 21 days
[4] = 5 mg/kg p.o. once daily for 21 days
[5] = 10 mg/kg p.o. once daily for 21 days
[6] = 2 mg/kg p.o. once daily for 21 days
[7] = 320 mg/kg p.o. once daily for 21 days

COc1cc2ncnc(Nc3ccc(F)c(Cl)c3)c2cc1NC(=O)/C=C/CN1CCC1CO (centres unmarked) [Example 1, (E)-N-(4-(3-chloro-4-fluorophenylamino)-7-methoxyquinazolin-6-yl)-4-(2-(hydroxymethyl)azetidin-1-yl)but-2-enamide]
IC50 [1]: 2.3 nM | IC50 [2]: 5 nM

COCCOc1cc2ncnc(Nc3ccc(F)c(Cl)c3)c2cc1NC(=O)/C=C/CN1CC[C@H]1COC [Example 7, (S,E)-N-(4-(3-chloro-4-fluorophenylamino)-7-(2-methoxyethoxy)quinazolin-6-yl)-4-(2-(methoxymethyl)azetidin-1-yl)but-2-enamide]
IC50 [1]: 5.8 nM

COC[C@@H]1CCN1C/C=C/C(=O)Nc1cc2c(Nc3ccc(F)c(Cl)c3)ncnc2cc1OC[C@H]1[C@@H]2COC[C@@H]21 [Example 20, (E)-N-(7-((1R,5S,6r)-3-oxabicyclo[3.1.0]hexan-6-ylmethoxy)-4-(3-chloro-4-fluorophenylamino)quinazolin-6-yl)-4-((S)-2-(methoxymethyl)azetidin-1-yl)but-2-enamide]
IC50 [1]: 22.2 nM

CN(C)C/C=C/C(=O)Nc1cc2c(Nc3ccc(F)c(Cl)c3)ncnc2cc1O[C@H]1CCOC1 [Afatinib, reference compound]
Average Tumor Volume Day 21 (NCI-N87 tumor cells; [3]): 72.9 ± 7.9 mm^3 | Inhibition rate (NCI-N87 tumor cells; [3]): 138% | T/C (NCI-N87 tumor cells; [3]): −38% | Average Tumor Volume Day 0 (NCI-N87 tumor cells; 20 mg/kg p.o. once daily): 117.2 ± 8.3 mm^3

COC[C@H]1CCN1C/C=C/C(=O)Nc1cc2c(Nc3ccc(F)c(Cl)c3)ncnc2cc1OC[C@H]1COCCO1 [Example 14, (E)-N-(7-(((R)-1,4-dioxan-2-yl)methoxy)-4-(3-chloro-4-fluorophenylamino)quinazolin-6-yl)-4-((R)-2-(methoxymethyl)azetidin-1-yl)but-2-enamide]
IC50 [1]: 2.9 nM

COCCOc1cc2ncnc(Nc3ccc(F)c(Cl)c3)c2cc1NC(=O)/C=C/CN1CC[C@@H]1COC [Example 6, (R,E)-N-(4-(3-chloro-4-fluorophenylamino)-7-(2-methoxyethoxy)quinazolin-6-yl)-4-(2-(methoxymethyl)azetidin-1-yl)but-2-enamide]
IC50 [1]: 1.4 nM | Average Tumor Volume Day 21 (NCI-N87 tumor cells; [4]): 176.3 ± 24.2 mm^3 | Inhibition rate (NCI-N87 tumor cells; [4]): 95% | T/C (NCI-N87 tumor cells; [4]): 5% | Average Tumor Volume Day 0 (NCI-N87 tumor cells; 5 mg/kg p.o. once daily): 116.9 ± 7.8 mm^3 | Average Tumor Volume Day 21 (NCI-N87 tumor cells; [5]): 49.0 ± 3.9 mm^3 | Inhibition rate (NCI-N87 tumor cells; [5]): 157% | T/C (NCI-N87 tumor cells; [5]): −57% | Average Tumor Volume Day 0 (NCI-N87 tumor cells; 10 mg/kg p.o. once daily): 114.8 ± 7.8 mm^3

COC[C@H]1CCN1C/C=C/C(=O)Nc1cc2c(Nc3ccc(F)c(Cl)c3)ncnc2cc1OC [Example 2, (R,E)-N-(4-(3-chloro-4-fluorophenylamino)-7-methoxyquinazolin-6-yl)-4-(2-(methoxymethyl)azetidin-1-yl)but-2-enamide]
IC50 [1]: 1.6 nM | IC50 [2]: 1.6 nM | Average Tumor Volume Day 21 (NCI-N87 tumor cells; [6]): 584.4 ± 71.3 mm^3 | Inhibition rate (NCI-N87 tumor cells; [6]): 61% | T/C (NCI-N87 tumor cells; [6]): 39% | Average Tumor Volume Day 0 (NCI-N87 tumor cells; 2 mg/kg p.o. once daily): 113.3 ± 4.4 mm^3 | Average Tumor Volume Day 21 (NCI-N87 tumor cells; [4]): 54.3 ± 3.8 mm^3 | Inhibition rate (NCI-N87 tumor cells; [4]): 154% | T/C (NCI-N87 tumor cells; [4]): −54% | Average Tumor Volume Day 0 (NCI-N87 tumor cells; 5 mg/kg p.o. once daily): 117.6 ± 7.2 mm^3

O=C(/C=C/CN1CCC1CO)Nc1cc2c(Nc3ccc(F)c(Cl)c3)ncnc2cc1O[C@H]1CCOC1 (stereo partly drawn) [Example 11, (E)-N-(4-(3-chloro-4-fluorophenylamino)-7-((S)-tetrahydrofuran-3-yloxy)quinazolin-6-yl)-4-(2-(hydroxymethyl)azetidin-1-yl)but-2-enamide]
IC50 [1]: 3.9 nM | IC50 [2]: 9.6 nM

CS(=O)(=O)CCNCc1ccc(-c2ccc3ncnc(Nc4ccc(OCc5cccc(F)c5)c(Cl)c4)c3c2)o1 [Lapatinib, reference compound]
Inhibition rate (NCI-N87 tumor cells; [7]): 87% | T/C (NCI-N87 tumor cells; [7]): 13% | Average Tumor Volume Day 0 (NCI-N87 tumor cells): 124.4 ± 7.3 mm^3

CCOc1cc2ncnc(Nc3ccc(F)c(Cl)c3)c2cc1NC(=O)/C=C/CN1CC[C@@H]1COC [Example 4, (R,E)-N-(4-(3-chloro-4-fluorophenylamino)-7-ethoxyquinazolin-6-yl)-4-(2-(methoxymethyl)azetidin-1-yl)but-2-enamide]
IC50 [1]: 2 nM | Average Tumor Volume Day 21 (NCI-N87 tumor cells; [6]): 436.6 ± 60.5 mm^3 | Inhibition rate (NCI-N87 tumor cells; [6]): 73% | T/C (NCI-N87 tumor cells; [6]): 27% | Average Tumor Volume Day 0 (NCI-N87 tumor cells; 2 mg/kg p.o. once daily): 105.6 ± 9.9 mm^3 | Average Tumor Volume Day 21 (NCI-N87 tumor cells; [4]): 49.7 ± 5.4 mm^3 | Inhibition rate (NCI-N87 tumor cells; [4]): 154% | T/C (NCI-N87 tumor cells; [4]): −54% | Average Tumor Volume Day 0 (NCI-N87 tumor cells; 5 mg/kg p.o. once daily): 109.1 ± 10.1 mm^3

COC[C@@H]1CCN1C/C=C/C(=O)Nc1cc2c(Nc3ccc(F)c(Cl)c3)ncnc2cc1OC[C@H]1COCCO1 [Example 15, (E)-N-(7-(((R)-1,4-dioxan-2-yl)methoxy)-4-(3-chloro-4-fluorophenylamino)quinazolin-6-yl)-4-((S)-2-(methoxymethyl)azetidin-1-yl)but-2-enamide]
IC50 [1]: 25 nM

O=C(/C=C/CN1CCC1CO)Nc1cc2c(Nc3ccc(F)c(Cl)c3)ncnc2cc1OC[C@H]1[C@@H]2COC[C@@H]21 (stereo partly drawn) [Example 18, (E)-N-(7-((1R,5S,6r)-3-oxabicyclo[3.1.0]hexan-6-ylmethoxy)-4-(3-chloro-4-fluorophenylamino)quinazolin-6-yl)-4-(2-(hydroxymethyl)azetidin-1-yl)but-2-enamide]
IC50 [1]: 10.8 nM | IC50 [2]: 11.2 nM

O=C(/C=C/CN1CCC1CO)Nc1cc2c(Nc3ccc(F)c(Cl)c3)ncnc2cc1OCC1CC1 (centres unmarked) [Example 8, (E)-N-(4-(3-chloro-4-fluorophenylamino)-7-(cyclopropylmethoxy)quinazolin-6-yl)-4-(2-(hydroxymethyl)azetidin-1-yl)but-2-enamide]
IC50 [1]: 9.5 nM | IC50 [2]: 11.8 nM

COC[C@@H]1CCN1C/C=C/C(=O)Nc1cc2c(Nc3ccc(F)c(Cl)c3)ncnc2cc1OC [Example 3, (S,E)-N-(4-(3-chloro-4-fluorophenylamino)-7-methoxyquinazolin-6-yl)-4-(2-(methoxymethyl)azetidin-1-yl)but-2-enamide]
IC50 [1]: 21.5 nM | IC50 [2]: 14.2 nM

COC[C@H]1CCN1C/C=C/C(=O)Nc1cc2c(Nc3ccc(F)c(Cl)c3)ncnc2cc1OCC1CC1 [Example 9, (R,E)-N-(4-(3-chloro-4-fluorophenylamino)-7-(cyclopropylmethoxy)quinazolin-6-yl)-4-(2-(methoxymethyl)azetidin-1-yl)but-2-enamide]
IC50 [1]: 6.6 nM | Average Tumor Volume Day 21 (NCI-N87 tumor cells; [4]): 349.3 ± 43.8 mm^3 | Inhibition rate (NCI-N87 tumor cells; [4]): 81% | T/C (NCI-N87 tumor cells; [4]): 19% | Average Tumor Volume Day 0 (NCI-N87 tumor cells; 5 mg/kg p.o. once daily): 124.1 ± 8.5 mm^3 | Average Tumor Volume Day 21 (NCI-N87 tumor cells; [5]): 60.3 ± 6.9 mm^3 | Inhibition rate (NCI-N87 tumor cells; [5]): 150% | T/C (NCI-N87 tumor cells; [5]): −50% | Average Tumor Volume Day 0 (NCI-N87 tumor cells; 10 mg/kg p.o. once daily): 120.2 ± 13.0 mm^3

COCC1CCN1C/C=C/C(=O)Nc1cc2c(Nc3ccc(F)c(Cl)c3)ncnc2cc1O[C@H]1CCOC1 (stereo partly drawn) [Example 12, (E)-N-(4-(3-chloro-4-fluorophenylamino)-7-((S)-tetrahydrofuran-3-yloxy)quinazolin-6-yl)-4-(2-(methoxymethyl)azetidin-1-yl)but-2-enamide]
IC50 [1]: 2.9 nM | IC50 [2]: 1.5 nM

O=C(/C=C/CN1CCC1CO)Nc1cc2c(Nc3ccc(F)c(Cl)c3)ncnc2cc1OC[C@H]1COCCO1 (stereo partly drawn) [Example 13, (E)-N-(7-(((R)-1,4-dioxan-2-yl)methoxy)-4-(3-chloro-4-fluorophenylamino)quinazolin-6-yl)-4-(2-(hydroxymethyl)azetidin-1-yl)but-2-enamide]
IC50 [1]: 2.7 nM | IC50 [2]: 13.5 nM

O=C(/C=C/CN1CCC1CO)Nc1cc2c(Nc3ccc(F)c(Cl)c3)ncnc2cc1OC[C@@H]1COCCO1 (stereo partly drawn) [Example 16, (E)-N-(7-(((S)-1,4-dioxan-2-yl)methoxy)-4-(3-chloro-4-fluorophenylamino)quinazolin-6-yl)-4-(2-(hydroxymethyl)azetidin-1-yl)but-2-enamide]
IC50 [1]: 17.5 nM | IC50 [2]: 39.5 nM

COC[C@@H]1CCN1C/C=C/C(=O)Nc1cc2c(Nc3ccc(F)c(Cl)c3)ncnc2cc1OCC1CC1 [Example 10, (S,E)-N-(4-(3-chloro-4-fluorophenylamino)-7-(cyclopropylmethoxy)quinazolin-6-yl)-4-(2-(methoxymethyl)azetidin-1-yl)but-2-enamide]
IC50 [1]: 21.7 nM
